{"source": "patent US20150209373A1", "about": "“Progesterone Receptor Modulators for Use in Preventing or Treating Androgen Mediated Diseases” (PregLem SA, priority 2012, published 2015)", "key": {"mice [1]": {"tested_on": "mice", "test": "4 week oral toxicity study with UPA in mice - organ weights", "type": "in vivo", "settings": "4 week oral toxicity study in mice", "procedure": "During a 104 week rat carcinogenicity assay, we observed seminal vesicles and prostate contraction at dose-levels of 1 (seminal vesicles, only), 3 and 10 mg/kg/day (PGL09-005). Similarly, during 4 and 26 week assays in the mouse, decreases in epididymidis weights were recorded at dose-levels ranging between 15 and 300 mg/kg/day (Tables 1 and 2). Ulipristal Acetate Anti-Androgenic Effect in a 4 Week Oral Toxicity Study in Mice"}, "mice [2]": {"tested_on": "mice", "test": "26 week oral carcinogenicity study with UPA in mice - organ weights", "type": "in vivo", "settings": "26 week oral carcinogenicity study in mice", "procedure": "During a 104 week rat carcinogenicity assay, we observed seminal vesicles and prostate contraction at dose-levels of 1 (seminal vesicles, only), 3 and 10 mg/kg/day (PGL09-005). Similarly, during 4 and 26 week assays in the mouse, decreases in epididymidis weights were recorded at dose-levels ranging between 15 and 300 mg/kg/day (Tables 1 and 2). Ulipristal Acetate Anti-Androgenic Effect in a 26 Week Oral Carcinogenicity Study in Mice"}, "rat": {"tested_on": "rat", "test": "104 week rat carcinogenicity assay (PGL09-005)", "type": "in vivo", "settings": "104 weeks", "procedure": "During a 104 week rat carcinogenicity assay, we observed seminal vesicles and prostate contraction at dose-levels of 1 (seminal vesicles, only), 3 and 10 mg/kg/day (PGL09-005). Similarly, during 4 and 26 week assays in the mouse, decreases in epididymidis weights were recorded at dose-levels ranging between 15 and 300 mg/kg/day (Tables 1 and 2)."}, "progesterone receptor": {"molecular_target": "T1, progesterone receptor (Homo sapiens, UniProt P06401)", "T1 sequence (P06401 1-933)": "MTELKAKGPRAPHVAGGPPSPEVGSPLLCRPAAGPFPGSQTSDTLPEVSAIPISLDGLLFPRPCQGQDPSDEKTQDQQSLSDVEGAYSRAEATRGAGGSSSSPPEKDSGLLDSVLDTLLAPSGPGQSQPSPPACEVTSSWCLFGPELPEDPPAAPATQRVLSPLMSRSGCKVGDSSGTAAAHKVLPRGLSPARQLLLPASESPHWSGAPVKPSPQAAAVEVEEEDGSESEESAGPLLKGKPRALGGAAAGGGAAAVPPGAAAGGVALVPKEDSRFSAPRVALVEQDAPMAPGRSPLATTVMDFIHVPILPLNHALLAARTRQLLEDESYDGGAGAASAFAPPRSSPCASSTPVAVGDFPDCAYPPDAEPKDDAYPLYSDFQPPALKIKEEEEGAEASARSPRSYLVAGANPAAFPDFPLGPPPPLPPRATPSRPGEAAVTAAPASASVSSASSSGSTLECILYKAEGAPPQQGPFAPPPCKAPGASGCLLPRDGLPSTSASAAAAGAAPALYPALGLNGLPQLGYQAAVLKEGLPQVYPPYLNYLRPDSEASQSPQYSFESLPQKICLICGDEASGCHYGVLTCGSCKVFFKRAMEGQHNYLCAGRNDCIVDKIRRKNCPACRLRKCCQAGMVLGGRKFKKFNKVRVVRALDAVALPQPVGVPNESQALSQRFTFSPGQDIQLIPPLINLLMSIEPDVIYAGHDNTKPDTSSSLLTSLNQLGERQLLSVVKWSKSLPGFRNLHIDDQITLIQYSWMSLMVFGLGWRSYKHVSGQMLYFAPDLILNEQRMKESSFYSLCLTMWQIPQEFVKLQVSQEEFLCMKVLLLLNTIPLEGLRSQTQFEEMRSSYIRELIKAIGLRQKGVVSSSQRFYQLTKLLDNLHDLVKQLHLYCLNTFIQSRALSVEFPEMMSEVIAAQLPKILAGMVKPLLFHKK", "test": "in vitro nuclear receptor selectivity profile - progesterone receptor", "type": "binding"}, "glucocorticoid receptor": {"molecular_target": "T2, glucocorticoid receptor (Homo sapiens, UniProt P04150)", "T2 sequence (P04150 1-777)": "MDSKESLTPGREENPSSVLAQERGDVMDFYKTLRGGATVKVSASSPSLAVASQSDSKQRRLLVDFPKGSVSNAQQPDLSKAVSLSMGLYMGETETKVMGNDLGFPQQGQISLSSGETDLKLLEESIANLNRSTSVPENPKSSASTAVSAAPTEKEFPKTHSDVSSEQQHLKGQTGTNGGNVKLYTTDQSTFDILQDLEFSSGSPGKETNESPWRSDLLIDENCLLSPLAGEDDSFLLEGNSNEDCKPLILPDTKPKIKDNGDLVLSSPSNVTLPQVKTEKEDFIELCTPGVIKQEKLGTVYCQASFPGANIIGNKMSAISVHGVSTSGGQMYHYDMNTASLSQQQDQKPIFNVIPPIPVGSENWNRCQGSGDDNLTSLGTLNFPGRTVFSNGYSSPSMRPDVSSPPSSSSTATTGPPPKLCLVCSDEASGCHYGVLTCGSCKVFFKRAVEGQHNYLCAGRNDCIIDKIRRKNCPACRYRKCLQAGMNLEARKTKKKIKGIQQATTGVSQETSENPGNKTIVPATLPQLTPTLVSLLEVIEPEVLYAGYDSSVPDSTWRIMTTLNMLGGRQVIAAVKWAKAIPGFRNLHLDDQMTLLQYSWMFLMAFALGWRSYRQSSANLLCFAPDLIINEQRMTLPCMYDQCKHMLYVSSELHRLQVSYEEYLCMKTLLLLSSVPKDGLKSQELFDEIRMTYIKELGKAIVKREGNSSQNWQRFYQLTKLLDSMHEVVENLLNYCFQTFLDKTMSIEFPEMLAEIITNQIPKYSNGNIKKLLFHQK", "test": "in vitro nuclear receptor selectivity profile - glucocorticoid receptor", "type": "binding"}, "androgen receptor": {"molecular_target": "T3, androgen receptor (Homo sapiens, UniProt P10275)", "T3 sequence (P10275 1-920)": "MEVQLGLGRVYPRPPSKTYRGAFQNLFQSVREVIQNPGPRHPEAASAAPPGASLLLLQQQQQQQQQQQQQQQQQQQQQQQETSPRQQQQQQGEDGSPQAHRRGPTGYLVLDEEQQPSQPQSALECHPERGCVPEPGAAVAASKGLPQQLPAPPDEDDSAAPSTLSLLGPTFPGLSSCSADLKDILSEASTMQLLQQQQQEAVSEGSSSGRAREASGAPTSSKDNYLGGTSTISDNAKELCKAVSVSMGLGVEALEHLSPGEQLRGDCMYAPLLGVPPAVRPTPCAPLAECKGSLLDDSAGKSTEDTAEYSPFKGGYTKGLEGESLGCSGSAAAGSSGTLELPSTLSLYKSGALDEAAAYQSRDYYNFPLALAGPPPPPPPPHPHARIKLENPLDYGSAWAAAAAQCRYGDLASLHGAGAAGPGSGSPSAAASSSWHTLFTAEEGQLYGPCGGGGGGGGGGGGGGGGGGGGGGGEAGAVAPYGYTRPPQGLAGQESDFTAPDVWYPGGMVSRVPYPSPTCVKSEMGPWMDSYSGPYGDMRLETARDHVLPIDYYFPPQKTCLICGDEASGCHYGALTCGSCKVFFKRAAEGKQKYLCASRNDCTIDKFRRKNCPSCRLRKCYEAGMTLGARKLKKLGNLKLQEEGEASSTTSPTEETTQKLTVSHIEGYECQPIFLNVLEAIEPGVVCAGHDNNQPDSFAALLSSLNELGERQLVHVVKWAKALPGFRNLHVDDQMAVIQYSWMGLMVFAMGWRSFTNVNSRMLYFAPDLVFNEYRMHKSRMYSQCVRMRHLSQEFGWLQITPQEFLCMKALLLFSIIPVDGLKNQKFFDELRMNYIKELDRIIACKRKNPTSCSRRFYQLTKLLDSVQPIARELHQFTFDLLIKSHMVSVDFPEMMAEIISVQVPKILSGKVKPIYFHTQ", "test": "in vitro nuclear receptor selectivity profile - androgen receptor", "type": "binding"}, "oestrogen receptors": {"tested_on": "oestrogen receptors", "test": "in vitro nuclear receptor selectivity profile - oestrogen receptors", "type": "binding"}}, "data": [{"compound": "CC(=O)O[C@]1(C(C)=O)CC[C@H]2[C@@H]3CCC4=CC(=O)CCC4=C3[C@@H](c3ccc(N(C)C)cc3)C[C@@]21C", "note": "[UPA, Ulipristal acetate]", "values": [{"measurement": "interpretation of decrease in organ weight", "setting": "mice [1]", "value": "suggestive of anti-androgenic like effects"}, {"measurement": "interpretation of decrease in organ weight", "setting": "mice [2]", "value": "suggestive of anti-androgenic like effects"}, {"measurement": "seminal vesicles finding", "setting": "rat; dose-levels of 1, 3 and 10 mg/kg/day", "value": "contraction"}, {"measurement": "prostate finding", "setting": "rat; dose-levels of 3 and 10 mg/kg/day (not at 1 mg/kg/day)", "value": "contraction"}, {"measurement": "affinity for the progesterone receptor", "setting": "progesterone receptor", "value": "high affinity"}, {"measurement": "affinity for the glucocorticoid receptor", "setting": "glucocorticoid receptor", "value": "high affinity"}, {"measurement": "affinity for the androgen receptor", "setting": "androgen receptor", "value": "much lower affinity"}, {"measurement": "affinity for the oestrogen receptors", "setting": "oestrogen receptors", "value": "no affinity"}, {"measurement": "in vivo anti-androgenic activity", "setting": "in vivo activity profile", "value": "anti-androgenic effects"}, {"measurement": "in vivo anti-glucocorticoid activity", "setting": "in vivo activity profile", "value": "no significant anti-glucocorticoid effects"}]}]}
